Experimental data as given in patent US9597407B2, “Targeted antimicrobial moieties” (C3 Jian, Inc., priority 2009, dated 2017).
“Also recorded” adds a separate entry of the source.

Test system: bacteria
Assay: Binding of targeting peptides to microorganisms (Table 3)
Details: microorganism bound by the targeting peptide; binding in aqueous buffers chosen by peptide solubility, preferably 1x PBS

Row | Substance | Target(s)
1 | PF-191 (QFCNFAWLFLASNNAQVSALA; Peptide with targeting and/or antimicrobial activity) | E. coli; also recorded: P. aeruginosa; also recorded: C. jejuni
2 | PF-219 (FLALAVIAGLFKVILIYAAPYLK; Peptide with targeting and/or antimicrobial activity) | S. epidermidis; also recorded: M. luteus; also recorded: P. aeruginosa; also recorded: A. baumannii
3 | HIKETR (Peptide with targeting and/or antimicrobial activity) [PF-222] | S. epidermidis
4 | PF-320 (DSGYYALLENKEERVVWDGEVVANNIFNNLWIVVNKVKTG; Peptide with targeting and/or antimicrobial activity) | S. mutans; also recorded: E. coli
5 | PF-101 (DPVPERQEQACACHRTAKPGK; Peptide with targeting and/or antimicrobial activity) | S. mutans
6 | PF-265 (MKTLFFPLFLIIFVLIIQALDQSYQKKIGISKPQKHPEFMQ; Peptide with targeting and/or antimicrobial activity) | S. epidermidis; also recorded: M. luteus; also recorded: A. baumannii
7 | PF-177 (VTSEPGIAHDIRLLPRAAAFR; Peptide with targeting and/or antimicrobial activity) | M. luteus and MRSA and E. faecalis and C. jeikeium
8 | PF-371 (TFIYNEF; Peptide with targeting and/or antimicrobial activity) | S. epidermidis; also recorded: B. fragilis; also recorded: C. jejuni
9 | PF-281 (SYNTYYNKLIHGQRTPDGM; Peptide with targeting and/or antimicrobial activity) | S. mutans; also recorded: E. coli
10 | PF-166 (SKAVSRKRSI; Peptide with targeting and/or antimicrobial activity) | E. coli; also recorded: C. jeikeium
11 | PF-214 (GHLRVCWVFSASLLTPFRSATLI; Peptide with targeting and/or antimicrobial activity) | S. mutans; also recorded: S. epidermidis; also recorded: M. luteus; also recorded: E. coli; also recorded: P. aeruginosa; also recorded: A. baumannii
12 | PF-146 (GCGKRRIITKSASRDTR; Peptide with targeting and/or antimicrobial activity) | S. epidermidis and M. luteus and P. aeruginosa and C. albicans and MRSA and C. jeikeium

Same assay, conditions: microorganism the targeting peptide binds; binding in aqueous buffers that varied with peptide solubility, preferably 1x PBS

Row | Substance | Target(s)
13 | TT-307 (NGDKKAKEELDKWDEVIKELNIQF; Peptide with targeting and/or antimicrobial activity) | F. nucleatum
14 | 1T-286 (LGFFNNKADLVKADTERDNRMSSLKIKDL; Peptide with targeting and/or antimicrobial activity) [Peptide 1T-286] | S. sanguinis
15 | 1T-217 (MLSNVLSRSVVSPNVDIPNSMVILSPLLISISNYH; Peptide with targeting and/or antimicrobial activity) [Peptide 1T-217] | F. nucleatum; also recorded: S. sanguinis
16 | 1T-248 (IGGALNSCG; Peptide with targeting and/or antimicrobial activity) [Peptide 1T-248] | S. sanguinis
17 | 1T-269 (PLYVAAVEKINTAKKH; Peptide with targeting and/or antimicrobial activity) [Peptide 1T-269] | F. nucleatum; also recorded: S. mutans; also recorded: S. oralis; also recorded: S. sanguinis

Same assay, conditions: peptide binding in aqueous buffers that varied depending on peptide solubility; preferably 1x PBS

Row | Substance | Target(s) (microorganisms bound by the targeting peptide) | Target(s) (microorganism bound by the targeting peptide)
18 | PF-404 (VLYFQATVV; Peptide with targeting and/or antimicrobial activity) | S. epidermidis; also recorded: E. coli; also recorded: P. aeruginosa; also recorded: E. faecalis; also recorded: C. jeikeium; also recorded: C. jejuni | –
19 | PF-503 (VVTLKDIVAVIEDQGYDVQ; Peptide with targeting and/or antimicrobial activity) | S. mutans | –
20 | PF-441 (TQVHKMARGIDPGPANGIYR; Peptide with targeting and/or antimicrobial activity) | C. jeikeium | –
21 | PF-412 (TSGWLGQLEQ; Peptide with targeting and/or antimicrobial activity) | M. luteus; also recorded: E. coli; also recorded: C. albicans; also recorded: C. jeikeium; also recorded: C. jejuni | –
22 | PEIIKIVSGLL [PF-758] | – | S. epidermidis and M. luteus and E. coli and MRSA and S. pneumoniae and E. faecalis and C. jeikeium
23 | PF-794 (NLYFENQGN; Peptide with targeting and/or antimicrobial activity) | – | S. mutans
24 | PF-488 (YPNEQGHHKNNLKNIIIE; Peptide with targeting and/or antimicrobial activity) | S. mutans; also recorded: E. coli | –
25 | PF-491 (IHQYSSKPDIVGQEAKTVQQINS; Peptide with targeting and/or antimicrobial activity) | S. mutans; also recorded: E. coli | –
26 | PF-789 (PRGAQSGHG; Peptide with targeting and/or antimicrobial activity) | – | Mycobacteria spp.
27 | PF-782 (TGPRRGIDLTSNRALSEVLDEGLELNSRK; Peptide with targeting and/or antimicrobial activity) | – | Mycobacteria spp.
28 | PF-435 (MSRWDGHSDKGEAPAGKPPMHGFGLNGENK; Peptide with targeting and/or antimicrobial activity) | C. jeikeium | –
29 | PF-650 (IRSDQPGRQSRSSPRWPTGAGRHR; Peptide with targeting and/or antimicrobial activity) | – | Mycobacteria spp

Same assay, conditions: peptide binding in aqueous buffers varied by peptide solubility; preferably 1x PBS

Row | Substance | Target(s) (microorganism bound by the targeting peptide)
30 | 1T-80 (GGNLGPGFGVIIP; Peptide with targeting and/or antimicrobial activity) [Peptide 1T-80] | S. pneumoniae
31 | 1T-39 (FGFCVWMYQLLAGPPGPPA; Peptide with targeting and/or antimicrobial activity) [Peptide 1T-39] | S. mutans; also recorded: P. aeruginosa
32 | 1T-57 (RLEYRRLETQVEENPESGRRPMRG; Peptide with targeting and/or antimicrobial activity) [Peptide 1T-57] | P. aeruginosa
33 | 1T-19 (PGAFRNPQMPRG; Peptide with targeting and/or antimicrobial activity) [Peptide 1T-19] | S. aureus; also recorded: S. epidermidis; also recorded: P. aeruginosa
34 | 1T-6 (KFINGVLSQFVLERK; Peptide with targeting and/or antimicrobial activity) [Peptide 1T-6] | S. mutans
35 | 1T-87 (EAVGQDLVDAHHP; Peptide with targeting and/or antimicrobial activity) [Peptide 1T-87] | S. mitis; also recorded: S. mutans; also recorded: S. oralis
36 | 1T-37 (YIVGALVILAVAGLIYSMLRKA; Peptide with targeting and/or antimicrobial activity) [Peptide 1T-37] | S. mutans; also recorded: S. aereus; also recorded: S. epidermidis; also recorded: C. jeikeium; also recorded: C. xerosis; also recorded: C. striatum; also recorded: P. aeruginosa
37 | 1T-51 (GKPKRMPAEFIDGYGQALLAGA; Peptide with targeting and/or antimicrobial activity) [Peptide 1T-51] | S. aureus; also recorded: P. aeruginosa
38 | 1T-58 (CDDLHALERAGKLDALLSA; Peptide with targeting and/or antimicrobial activity) [Peptide 1T-58] | P. aeruginosa
39 | 1T-70 (NRQAQGERAHGEQQG; Peptide with targeting and/or antimicrobial activity) [Peptide 1T-70] | S. aureus; also recorded: C. jeikeium; also recorded: P. aeruginosa
40 | 1T-30 (GKAKPYQVRQVLRAVDKLETRRKKGGR; Peptide with targeting and/or antimicrobial activity) [Peptide 1T-30] | S. aureus; also recorded: S. epidermidis; also recorded: C. xerosis; also recorded: C. striatum; also recorded: P. aeruginosa
41 | 1T-77 (EMRISRIILDFLFLRKK; Peptide with targeting and/or antimicrobial activity) [Peptide 1T-77] | S. pneumoniae
42 | 1T-35 (EICLTLVFPIRGSYSEAAKFPVPIHIVEDGTVELPK; Peptide with targeting and/or antimicrobial activity) [Peptide 1T-35] | P. aeruginosa
43 | 1T-65 (HARAAVGVAELPRGAAVEVELIAAVRP; Peptide with targeting and/or antimicrobial activity) [Peptide 1T-65] | S. mutans; also recorded: S. aureus; also recorded: S. epidermidis; also recorded: C. jeikeium; also recorded: C. xerosis; also recorded: C. striatum; also recorded: P. aeruginosa
44 | 1T-95 (GHLLRVGGRVGGVGGVAGACAQPFGGQ; Peptide with targeting and/or antimicrobial activity) [Peptide 1T-95] | S. gordonii; also recorded: S. mitis; also recorded: S. mutans; also recorded: S. oralis; also recorded: S. sanguinis

Test system: microorganisms
Assay: Morphology, biofilm and growth disruption by peptides (Table 5)
Assay type: cell-based
Design: key: A: Peptide aggregates; B: Less hyphal formation; Clumps; Diffuse clumps and small polyps; F: Diffuse growth; H: Thin; I: Growth inhibition; Microcolony formation; Rippled; Small polyps; Thick; W: Halo formation on top, microlonies on bottom
Details: C. jeikeium
From the text: In certain embodiments peptides that induce alterations in phenotype or other biological activities can also be used as antimicrobial effector moieties.

Row | Substance | Organism, effect
45 | PF-191 (QFCNFAWLFLASNNAQVSALA; Peptide with targeting and/or antimicrobial activity) | C. jeikeium (R)

Same assay, conditions: MRSA

Row | Substance | Organism, effect
46 | PF-191 (QFCNFAWLFLASNNAQVSALA; Peptide with targeting and/or antimicrobial activity) | MRSA (H)
47 | PF-404 (VLYFQATVV; Peptide with targeting and/or antimicrobial activity) | MRSA (M)

Same assay, conditions: S. epidermidis

Row | Substance | Organism, effect
48 | PF-191 (QFCNFAWLFLASNNAQVSALA; Peptide with targeting and/or antimicrobial activity) | S. epidermidis (A)
49 | PF-404 (VLYFQATVV; Peptide with targeting and/or antimicrobial activity) | S. epidermidis (M)
